Measured values from patent publication US9381224B2, “Plant based formulation for the prevention and management of metabolic syndrome and cardiovascular disease mortality risk” (priority 2014, dated 2016).

Tested on: Metabolic Syndrome cases
Experiment: Clinical study in diagnosed Metabolic Syndrome cases
Format: in vivo, human
Method: The study population consisted of 128 diagnosed Metabolic Syndrome cases (76 Men and 52 Women), aged 52.81±9.68 years at study entry. The cases were diagnosed as per criteria given by WHO for classification and diagnosis of Metabolic Syndrome.
After preliminary screening the subjects showing association with 3 or more than 3 above factors were selected. The clinical trial was conducted in three groups—
44 cases were treated with Ayurvedic formulation.
Body mass index (BMI) was calculated following formula {weight (kg)÷ height (m2)} and anthropometer was used for circumference measurement. Lipid profile including triglyceride was estimated by standard laboratory kits. TNF-[…], interleukin-6 was measured by ELISA kit, adiponectin by radioimmunoassay kit. CRP by kit for quantitative nephelometric determination of CRP in human serum or plasma by Turbox/Turbox analyzer and ELISA activity assay kit for Leptin level. Subjects suffering from any other disease known to affect the study parameters were excluded from the series. Upon recruitment all subjects gave informed written consent.

In the case of `CCCCCCCCCCC[C@@H](C[C@@H]1OC(=O)[C@H]1CCCCCC)OC(=O)[C@H](CC(C)C)NC=O` [Conventional drug, Orlistat], the HbA1c (After 3 months) is reported as 5.93%, the PAI-1 (After 3 months) is reported as 37.42 ng/mL and the tPA-1 (After 3 months) is reported as 19.45 ng/mL. The Adiponectin (After 6 months) was 7.39 µg/mL, the “Apolipo (B)” value (After 6 months) was 152.87 mg/dL and the Diastolic blood pressure (After 6 months) was 86.24 mmHg. It also gave an Endothelin (After 6 months) of 988.73 pg/mL, a Fasting blood glucose (After 6 months) of 108.42 mg/dL and an HDL-c (After 6 months) of 43.02 mg/dL. For the same compound, the HbA1c (After 6 months) was 5.24%, the Interleukin-6 (After 6 months) was 2.12 pg/mL and the LDL-c (After 6 months) was 114.32 mg/dL. It also gave a Leptin (After 6 months) of 25.73 µg/L, a PAI-1 (After 6 months) of 32.98 ng/mL and a Postprandial blood glucose (After 6 months) of 179.45 mg/dL. The Systolic blood pressure (After 6 months) was 124.87 mmHg, the TNF-α (After 6 months) was 488.90 pg/mL and the Total cholesterol (After 6 months) was 216.92 mg/dL. For the same compound, the Triglycerides (After 6 months) was 287.93 mg/dL, the “hs CRP” value (After 6 months) was 3.64 mg/L and the tPA-1 (After 6 months) was 18.46 ng/mL. The CD36 (Gender F, After 3 months) was 156.42 ng/mL, the CD36 (Gender F, After 6 months) was 155.90 ng/mL and the CD36 (Gender F, Initial) was 142.90 ng/mL. It also gave a CD36 (Gender M, After 3 months) of 173.64 ng/mL, a CD36 (Gender M, After 6 months) of 196.22 ng/mL and an Adiponectin (Initial) of 6.92 µg/mL. The “Apolipo (B)” value (Initial) was 188.73 mg/dL, the Diastolic blood pressure (Initial) was 89.04 mmHg and the Endothelin (Initial) was 1286.93 pg/mL. The Fasting blood glucose (Initial) was 136.42 mg/dL, the HDL-c (Initial) was 41.62 mg/dL and the HbA1c (Initial) was 6.82%. The Interleukin-6 (Initial) was 2.25 pg/mL, the LDL-c (Initial) was 139.72 mg/dL and the Leptin (Initial) was 36.42 µg/L. For the same compound, the PAI-1 (Initial) was 40.12 ng/mL, the Postprandial blood glucose (Initial) was 231.68 mg/dL and the Systolic blood pressure (Initial) was 136.68 mmHg. The TNF-α (Initial) was 622.45 pg/mL, the Total cholesterol (Initial) was 247.90 mg/dL and the Triglycerides (Initial) was 354.86 mg/dL. The “hs CRP” value (Initial) was 4.93 mg/L and the tPA-1 (Initial) was 21.23 ng/mL.
